Values of other authors in paper PMC9019041, “Structural insights into the peptide selectivity and activation of human neuromedin U receptors” (Nature Communications, 2022).
Where no end group is shown, it is not given here.

Columns and labels:
[1] = test system: neuromedin U receptor 1 (NMUR1); conditions: low selectivity; cited from earlier work
From the text: (§1) Human neuromedin U (NMU) is a 25-amino-acid endogenous peptide that was first discovered in extracts of the porcine spinal cord with a potent smooth muscle contractile activity. It is also involved in pleiotropic physiological functions, including the regulation of blood pressure, food uptake, nociception, pain perception, bone formation, and immunological responses. More recently, human neuromedin S (NMS), a 33-amino-acid endogenous peptide, was discovered, which shares an identical C-terminal heptapeptide with NMU. Unlike NMU, which is widely distributed in the central nervous system ( ...

[2] = test system: neuromedin U receptor 2 (NMUR2); conditions: low selectivity; cited from earlier work
From the text: as §1

neuromedin S (ILQRGSGTAAVDFTKKDHTATWGRPFFLFRPRN-NH2) [NMS, Human 33-amino-acid endogenous neuropeptide sharing the C-terminal heptapeptide with NMU; agonist of NMUR1 and NMUR2 (GenScript)]
affinity [1]: sub-nanomolar
affinity [2]: sub-nanomolar
